One assay has as its target CSNK1D (Homo sapiens (Human), UniProt P48730). The assay can be described thus: CSNK1D Assay (ADP-Glo, 1 μM ATP). The format is biochemical. The following applies: median, read-out: CSNK1D IC50 [mol/l] (median). The essentials:
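Enzyme preincubated with compound 15 min at 22° C in 50 mM HEPES pH 7.5 buffer with 10 mM MgCl2, 1 mM DTT; kinase reaction run at 1 μM ATP with biotinylated peptide substrate. ADP formed was detected by ADP-Glo luminescence as the measure of activity.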

The target of a further assay is CSNK1A1 (Homo sapiens (Human), UniProt P48729). The assay is described as follows: CSNK1A1 Assay 2 (ADP-Glo, 1 μM ATP). The class given is biochemical. The following applies: median, read-out: CSNK1A1 Assay 2 IC50 [mol/l] (median). The gist of the method: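 Enzyme (~0.0375 ng/μL) preincubated 15 min at 22° C with compound in HEPES pH 7.5 buffer, then reacted with 1 μM ATP and biotin-Ahx-KRRRAL-pS-VASLPGL peptide. ADP product measured by ADP-Glo luminescence after 1 h ATP depletion and 1 h detection at 22° C.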
Sequence of CSNK1A1 (P48729 whole entry): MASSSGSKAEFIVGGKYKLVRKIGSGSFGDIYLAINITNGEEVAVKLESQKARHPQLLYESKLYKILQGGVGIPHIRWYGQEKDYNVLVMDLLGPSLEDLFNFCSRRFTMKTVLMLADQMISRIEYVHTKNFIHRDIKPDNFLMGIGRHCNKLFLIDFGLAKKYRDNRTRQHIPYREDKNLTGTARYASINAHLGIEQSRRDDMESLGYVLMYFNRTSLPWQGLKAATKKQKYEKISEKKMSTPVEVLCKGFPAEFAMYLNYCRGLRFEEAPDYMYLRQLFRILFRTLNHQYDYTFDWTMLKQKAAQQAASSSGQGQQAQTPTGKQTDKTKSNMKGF
In general terms: ADP-Glo first removes unused ATP, then detects ADP through luciferase.

Sequence of CSNK1D (P48730 whole entry): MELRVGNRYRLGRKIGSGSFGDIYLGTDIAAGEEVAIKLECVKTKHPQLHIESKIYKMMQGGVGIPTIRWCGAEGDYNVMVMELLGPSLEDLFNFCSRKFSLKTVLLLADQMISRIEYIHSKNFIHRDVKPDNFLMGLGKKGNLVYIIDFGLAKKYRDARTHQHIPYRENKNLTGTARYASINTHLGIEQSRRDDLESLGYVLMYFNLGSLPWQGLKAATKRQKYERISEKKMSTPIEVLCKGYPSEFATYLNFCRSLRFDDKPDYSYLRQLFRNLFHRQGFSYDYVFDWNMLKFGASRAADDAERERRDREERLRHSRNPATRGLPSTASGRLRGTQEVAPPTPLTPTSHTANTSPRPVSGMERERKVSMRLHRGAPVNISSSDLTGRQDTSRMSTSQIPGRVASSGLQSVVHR

`CC(C(=O)Nc1cc(-c2[nH]c3c(c2-c2ccccc2)C(=O)N(C)C2(CCC2)C3)ccn1)c1ccc(F)cc1` (single isomer, unassigned; (-)) [Example 53, (−)-2-(4-fluorophenyl)-N-[4-(5′-methyl-4′-oxo-3′-phenyl-1′,4′,5′,7′-tetrahydrospiro[cyclobutane-1,6′-pyrrolo[3,2-c]pyridin]-2′-yl)pyridin-2-yl]propanamide]: the IC50 on CSNK1D amounted to 16 nM; on CSNK1A1, 21 nM.

For the compound `CN1CCc2[nH]c(-c3ccnc(NC(=O)Cc4ccc(F)cc4)c3)c(-c3cccnc3)c2C1=O` [Example 12, 2-(4-fluorophenyl)-N-{4-[5-methyl-4-oxo-3-(pyridin-3-yl)-4,5,6,7-tetrahydro-1H-pyrrolo[3,2-c]pyridin-2-yl]pyridin-2-yl}acetamide], the IC50 at CSNK1D was 13 nM; at CSNK1A1 it was 10 nM.

Take `CC(C(=O)Nc1cc(-c2[nH]c3c(c2-c2ccccc2)C(=O)N(C)CC3CC(F)(F)F)ccn1)c1ccc(F)cc1` (stereo not drawn) [Example 13, 2-(4-fluorophenyl)-N-{4-[5-methyl-4-oxo-3-phenyl-7-(2,2,2-trifluoroethyl)-4,5,6,7-tetrahydro-1H-pyrrolo[3,2-c]pyridin-2-yl]pyridin-2-yl}propanamide]: the IC50 at CSNK1D was determined as 3.9 nM; on CSNK1A1 it was 3.5 nM.

Regarding `CN1CC(CC(F)(F)F)c2[nH]c(-c3ccnc(NC(=O)C(CC(F)F)c4ccc(F)cc4)c3)c(-c3ccccc3)c2C1=O` (stereo not drawn) [Example 17, 4,4-difluoro-2-(4-fluorophenyl)-N-{4-[5-methyl-4-oxo-3-phenyl-7-(2,2,2-trifluoroethyl)-4,5,6,7-tetrahydro-1H-pyrrolo[3,2-c]pyridin-2-yl]pyridin-2-yl}butanamide], the IC50 on CSNK1D turned out to be 4.3 nM; on CSNK1A1 it was 4.7 nM.

`CC(C(=O)Nc1cc(-c2[nH]c3c(c2-c2ccc(F)cc2)C(=O)N(C)CC3CC(F)(F)F)ccn1)c1ccc(F)cc1` (stereo not drawn) [Example 21, 2-(4-fluorophenyl)-N-{4-[3-(4-fluorophenyl)-5-methyl-4-oxo-7-(2,2,2-trifluoroethyl)-4,5,6,7-tetrahydro-1H-pyrrolo[3,2-c]pyridin-2-yl]pyridin-2-yl}propanamide]: the IC50 at CSNK1D is 6.6 nM; at CSNK1A1, 8.6 nM.

Take `CN1CC(CC(F)(F)F)c2[nH]c(-c3ccnc(NC(=O)C(CC(F)F)c4ccc(F)cc4)c3)c(-c3ccc(F)cc3)c2C1=O` (stereo not drawn) [Example 25, 4,4-difluoro-2-(4-fluorophenyl)-N-{4-[3-(4-fluorophenyl)-5-methyl-4-oxo-7-(2,2,2-trifluoroethyl)-4,5,6,7-tetrahydro-1H-pyrrolo[3,2-c]pyridin-2-yl]pyridin-2-yl}butanamide]: the IC50 at CSNK1D was 5 nM; on CSNK1A1 it was 6.4 nM.

In the case of `CC1CN(C)C(=O)c2c1[nH]c(-c1ccnc(NC(=O)C(C)c3ccc(F)cc3)c1)c2-c1ccc(F)cc1` (stereo not drawn) [Example 29, 2-(4-fluorophenyl)-N-{4-[3-(4-fluorophenyl)-5,7-dimethyl-4-oxo-4,5,6,7-tetrahydro-1H-pyrrolo[3,2-c]pyridin-2-yl]pyridin-2-yl}propanamide], the values for the IC50 on CSNK1D and at CSNK1A1 were 4.1 nM and 2.9 nM, respectively.

`CC1CN(C)C(=O)c2c1[nH]c(-c1ccnc(NC(=O)C(CC(F)F)c3ccc(F)cc3)c1)c2-c1ccc(F)cc1` (stereo not drawn) [Example 33, 4,4-difluoro-2-(4-fluorophenyl)-N-{4-[3-(4-fluorophenyl)-5,7-dimethyl-4-oxo-4,5,6,7-tetrahydro-1H-pyrrolo[3,2-c]pyridin-2-yl]pyridin-2-yl}butanamide]: the IC50 on CSNK1D and on CSNK1A1 was 4.3 nM throughout.

As to `CC1CN(C)C(=O)c2c1[nH]c(-c1ccnc(NC(=O)C(C)c3ccc(F)cc3)c1)c2-c1ccccc1` (stereo not drawn) [Example 37, N-{4-[5,7-dimethyl-4-oxo-3-phenyl-4,5,6,7-tetrahydro-1H-pyrrolo[3,2-c]pyridin-2-yl]pyridin-2-yl}-2-(4-fluorophenyl)propanamide], the IC50 on CSNK1D amounted to 4.1 nM; at CSNK1A1, 3.1 nM.
